According to US9963462B2 (priority 2015, dated 2018):
pIC50: −log10 of the molar value.

Test system: BH4 levels in SK-N-BE (2) cells
Test: SKN-N-BE (2) cellular assay, BH4 levels by LC-MS
Assay type: cell-based
Details: Homo sapiens, SKNBE2, read-out: SK-N-BE(2) IC50, SK-N-BE (2) cells, BH4 levels by LC-MS

| Compound | pIC50 |
| --- | --- |
| Cc1c(C(=O)N2CC(N3CCC3)C2)cnn1-c1nn2cccc2c(=O)[nH]1 [Q-0985] | 5.04 |
| Cc1c(C(=O)N2CCC(N3CC[C@H](F)C3)C2)cnn1-c1nn2cccc2c(=O)[nH]1 (some centres unmarked) [Q-1030] | 5.51 |
| Cc1c(C(=O)N2C[C@@H]3CCS(=O)(=O)[C@@H]3C2)cnn1-c1nn2cccc2c(=O)[nH]1 [Q-0971] | 5.14 |
| Cc1c(C(=O)N2CCC(n3nccc3C(F)(F)F)CC2)cnn1-c1nn2cccc2c(=O)[nH]1 [Q-0984] | 6.40 |
| CCN1CC2CCC(C1)N2C(=O)c1cnn(-c2nn3cccc3c(=O)[nH]2)c1C [Q-0884] | 6.70 |
| Cc1c(C(=O)N2CCC(C(F)(F)F)C3(CCC3)C2)cnn1-c1nn2cccc2c(=O)[nH]1 (centres unmarked) [Q-0960] | 6.70 |
| Cc1c(C(=O)N2CC(N3CC(F)(C(F)(F)F)C3)C2)cnn1-c1nn2cccc2c(=O)[nH]1 [Q-1042] | 6.00 |
| Cc1c(C(=O)N2C3CCC2CN(c2ccc(C#N)cc2)C3)cnn1-c1nn2cccc2c(=O)[nH]1 [Q-0869] | 7.00 |
| Cc1c(C(=O)N2CC(OCC(F)F)C2)cnn1-c1nn2cccc2c(=O)[nH]1 [Q-0979] | 5.85 |
| Cc1c(C(=O)N2C3CCC2CN(c2ccc(C(F)(F)F)cc2)C3)cnn1-c1nn2cccc2c(=O)[nH]1 [Q-0870] | 6.52 |
| Cc1c(C(=O)N2CC3CC(C(F)(F)F)CC3C2)cnn1-c1nn2cccc2c(=O)[nH]1 (centres unmarked) [Q-0902] | 7.00 |
| Cc1c(C(=O)N2CCC(N3CCC[C@@H](F)C3)C2)cnn1-c1nn2cccc2c(=O)[nH]1 (some centres unmarked) [Q-1016] | 5.62 |
| Cc1c(C(=O)N2CCC(F)(c3ccccn3)CC2)cnn1-c1nn2cccc2c(=O)[nH]1 [Q-0962] | 6.52 |
| COC1(C2CC2)CCN(C(=O)c2cnn(-c3nn4cccc4c(=O)[nH]3)c2C)CC1 [Q-0938] | 7.00 |
| COCC1(C#N)CCN(C(=O)c2cnn(-c3nn4cccc4c(=O)[nH]3)c2C)CC1 [Q-0957] | 6.00 |
| Cc1c(C(=O)N2CCN(c3nnc(C(F)(F)F)s3)CC2)cnn1-c1nn2cccc2c(=O)[nH]1 [Q-0975] | 5.89 |
| Cc1c(C(=O)N2CCC(OCc3ccc(F)cc3)CC2)cnn1-c1nn2cccc2c(=O)[nH]1 [Q-0893] | 6.52 |
| Cc1c(C(=O)N2CCCCC2C(F)(F)F)cnn1-c1nn2cccc2c(=O)[nH]1 (centres unmarked) [Q-0920] | 6.30 |
| Cc1c(C(=O)N2CC3CCC2c2ccccc23)cnn1-c1nn2cccc2c(=O)[nH]1 (centres unmarked) [Q-0965] | 7.00 |

| Compound | pIC50 |
| --- | --- |
| Cc1c(C(=O)N2CCC3CN(C(=O)OC(C)(C)C)CC32)cnn1-c1nn2cccc2c(=O)[nH]1 (centres unmarked) [Q-0914] | 6.22 |
| Cc1c(C(=O)N2CC(C(F)(F)F)CC(C(F)(F)F)C2)cnn1-c1nn2cccc2c(=O)[nH]1 (centres unmarked) [Q-0967] | 5.72 |
| CCC(C#N)C1CCN(C(=O)c2nnn(-c3nn4cccc4c(=O)[nH]3)c2C)CC1 (centres unmarked) [Q-1017] | 6.52 |
| Cc1c(C(=O)N2CCCC(C)(C#N)C2)cnn1-c1nn2cccc2c(=O)[nH]1 (centres unmarked) [Q-0923] | 5.89 |
| Cc1c(C(=O)N2CC[C@@H]3CN(C(=O)OC(C)(C)C)C[C@@H]32)cnn1-c1nn2cccc2c(=O)[nH]1 [Q-0897] | 6.30 |
| Cc1c(C(=O)N2C3CCC2CN(c2ccc(F)cc2)C3)cnn1-c1nn2cccc2c(=O)[nH]1 [Q-0880] | 7.06 |
| Cc1c(C(=O)N2CC[C@H]3CN(C(=O)OC(C)(C)C)[C@H]3C2)cnn1-c1nn2cccc2c(=O)[nH]1 [Q-0929] | 5.70 |
| Cc1c(C(=O)N2CCC3(CCOC3)C2)cnn1-c1nn2cccc2c(=O)[nH]1 (centres unmarked) [Q-0922] | 6.00 |
| Cc1c(C(=O)N2CC[C@@H](C(F)(F)F)C[C@H]2C)cnn1-c1nc2c(c(=O)[nH]1)CCC2 (single isomer, unassigned) [Q-0442] | 6.70 |
| Cc1c(C(=O)N2CC[C@@H](COc3nccc(Cl)n3)C2)cnn1-c1nn2cccc2c(=O)[nH]1 [Q-1043] | 5.85 |
| Cc1c(C(=O)N2CCC(N3CCC[C@H]3C(F)(F)F)CC2)cnn1-c1nn2cccc2c(=O)[nH]1 [Q-1029] | 6.00 |
| Cc1c(C(=O)N2CC[C@@H](OCc3cnc(Cl)s3)C2)cnn1-c1nn2cccc2c(=O)[nH]1 [Q-1011] | 6.10 |
| Cc1c(C(=O)N2CCn3c(nnc3C3CC3)C2)cnn1-c1nn2cccc2c(=O)[nH]1 [Q-0868] | 5.00 |
| Cc1c(C(=O)N2CCn3ccnc3C2)cnn1-c1nn2cccc2c(=O)[nH]1 [Q-0866] | 5.17 |
| Cc1c(C(=O)N2CCC3(CC2)CC3c2noc(-c3cccnc3)n2)cnn1-c1nn2cccc2c(=O)[nH]1 (centres unmarked) [Q-0932] | 6.15 |
| Cc1c(C(=O)N2CCN(C(C#N)c3cccs3)CC2)cnn1-c1nn2cccc2c(=O)[nH]1 (centres unmarked) [Q-0964] | 5.05 |
| Cc1c(C(=O)N2CC3(CN(CC(F)F)C3)C2)cnn1-c1nn2cccc2c(=O)[nH]1 [Q-0945] | 6.00 |
| COC1(C(F)(F)F)CCCN(C(=O)c2cnn(-c3nn4cccc4c(=O)[nH]3)c2C)C1 (centres unmarked) [Q-1006] | 5.85 |
| Cc1c(C(=O)N2CCN(C(=O)OC(C)(C)C)CC2(C)C)cnn1-c1nn2cccc2c(=O)[nH]1 [Q-0916] | 6.15 |

| Compound | pIC50 |
| --- | --- |
| O=C(c1cn(-c2nn3cccc3c(=O)[nH]2)nc1Cl)N1CCC(C(F)(F)F)CC1 [Q-0991] | 7.00 |
| Cc1c(C(=O)N2CCC(n3ccnc3)CC2)cnn1-c1nn2cccc2c(=O)[nH]1 [Q-0942] | 5.04 |
| Cc1c(C(=O)N2C3CCCC2CN(Cc2ccccc2)C3)cnn1-c1nn2cccc2c(=O)[nH]1 [Q-0989] | 6.05 |
| Cc1c(C(=O)N2CCC3C(CCN3C(=O)OC(C)(C)C)C2)cnn1-c1nn2cccc2c(=O)[nH]1 (centres unmarked) [Q-0865] | 7.00 |
| Cc1c(C(=O)N2CC3CCN(C(=O)OC(C)(C)C)C3C2)cnn1-c1nn2cccc2c(=O)[nH]1 (centres unmarked) [Q-0878] | 6.10 |
| Cc1c(C(=O)N2CCN(c3nc4ccccc4s3)CC2)cnn1-c1nn2cccc2c(=O)[nH]1 [Q-0936] | 6.70 |
| Cc1c(C(=O)N2CCC(N3CCCC3)CC2)cnn1-c1nn2cccc2c(=O)[nH]1 [Q-0886] | 5.27 |
| CCCC(C#N)C1CCN(C(=O)c2cnn(-c3nn4cccc4c(=O)[nH]3)c2C)CC1 (centres unmarked) [Q-0858] | 7.36 |
| Cc1c(C(=O)N2CC3(CCN(C(=O)OC(C)(C)C)CC3)C2)cnn1-c1nc2c(c(=O)[nH]1)CCC2 [Q-0928] | 6.70 |
| Cc1c(C(=O)N2CC3CC(C(N)=O)CC3C2)cnn1-c1nn2cccc2c(=O)[nH]1 (centres unmarked) [Q-0879] | 5.00 |
| Cc1c(C(=O)N2CC(OCC(F)(F)F)C2)cnn1-c1nn2cccc2c(=O)[nH]1 [Q-0987] | 5.96 |
| Cc1c(C(=O)N2CCN(CC(F)(F)F)CC2(C)C)cnn1-c1nn2cccc2c(=O)[nH]1 [Q-0949, 2-(4-(2,2-dimethyl-4-(2,2,2-trifluoroethyl)piperazine-1-carbonyl)-5-methyl-1H-pyrazol-1-yl)pyrrolo[1,2-f][1,2,4]triazin-4(3H)-one] | 6.70 |
| Cc1c(C(=O)N2CCC(F)(F)C2)cnn1-c1nn2cccc2c(=O)[nH]1 [Q-1050] | 5.85 |
| Cc1c(C(=O)N2CCCC3C2CCCN3C(=O)OC(C)(C)C)cnn1-c1nn2cccc2c(=O)[nH]1 (centres unmarked) [Q-0912] | 6.05 |
| Cc1c(C(=O)N2CCN(C(=O)Cc3ccccc3F)CC2)cnn1-c1nn2cccc2c(=O)[nH]1 [Q-1012] | 5.89 |
| Cc1c(C(=O)N2CC3(CCCC3)C2)cnn1-c1nc2c(c(=O)[nH]1)CCC2 [Q-0931] | 6.70 |
| Cc1c(C(=O)N2CC3CC(C#N)CC3C2)cnn1-c1nn2cccc2c(=O)[nH]1 (centres unmarked) [Q-0874] | 5.96 |
| Cc1c(C(=O)N2CCC23CC(F)(F)C3)cnn1-c1nn2cccc2c(=O)[nH]1 [Q-0900] | 5.64 |
